This assay deals with T1, human OX2 receptor (Homo sapiens, UniProt O43614).
T1 construct: expressed in transfected cells
T1 sequence (O43614 1-444): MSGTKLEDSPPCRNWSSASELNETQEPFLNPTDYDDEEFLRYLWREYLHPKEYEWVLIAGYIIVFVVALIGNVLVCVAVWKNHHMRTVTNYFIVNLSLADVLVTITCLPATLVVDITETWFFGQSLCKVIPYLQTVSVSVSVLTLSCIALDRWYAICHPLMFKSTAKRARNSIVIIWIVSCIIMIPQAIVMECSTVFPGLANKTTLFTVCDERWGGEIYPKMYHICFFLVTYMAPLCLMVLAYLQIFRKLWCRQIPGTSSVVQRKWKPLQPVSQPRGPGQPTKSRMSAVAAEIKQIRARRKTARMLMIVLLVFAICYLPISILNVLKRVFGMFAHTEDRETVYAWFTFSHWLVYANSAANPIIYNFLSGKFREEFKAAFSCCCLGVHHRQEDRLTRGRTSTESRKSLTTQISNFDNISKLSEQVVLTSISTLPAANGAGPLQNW
Put plainly: Measurement of orexin type 2 receptor agonist activity (calcium fluorescence, Fluo-4 AM, FDSS). Format: cell-based. Particulars: compound at 3 μM; CHO cells forcibly expressing human OX2 receptor; DMSO = 0%, 10 nM orexin A (human) = 100%. The method in brief: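 Agonist response is expressed as % of the fluorescence change given by 10 nM human orexin A, with DMSO as 0%, read over 1 min 40 s on FDSS after compound addition. Cells: stable human OX2 (1-444) CHO-K1 clones, dye-loaded with Fluo-4 AM plus probenecid in HEPES-buffered HBSS with 0.1% BSA.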
Take `CS(=O)(=O)N[C@@H]1CN(C2=NOC(c3c(F)cc(F)c(F)c3-c3c(F)cccc3F)C2)C[C@@H]1F` (stereo partly drawn) [Example 166, N-{(3R,4S)-4-fluoro-1-[5-(2′,3,5,6,6′-pentafluoro[1,1′-biphenyl]-2-yl)-4,5-dihydro-1,2-oxazol-3-yl]pyrrolidin-3-yl}methanesulfonamide]: the “OX2R agonist activity (3 μM, %)” value is reported as 102%.
As for `Cc1cnc(C2CC(N3C[C@@H](NS(C)(=O)=O)C(F)(F)C3)=NO2)c(-c2c(F)cccc2Cl)c1` (stereo partly drawn) [Example 61, N-[(3R)-1-{5-[3-(2-chloro-6-fluorophenyl)-5-methylpyridin-2-yl]-4,5-dihydro-1,2-oxazol-3-yl}-4,4-difluoropyrrolidin-3-yl]methanesulfonamide], the “OX2R agonist activity (3 μM, %)” value was found to be 98%.
As for `CS(=O)(=O)N[C@@H]1CN(C2=NOC(c3ccc(F)c(F)c3-c3c(F)cccc3F)C2)CC1(F)F` (stereo partly drawn) [Example 140, N-{(3R)-4,4-difluoro-1-[5-(2′,5,6,6′-tetrafluoro[1,1′-biphenyl]-2-yl)-4,5-dihydro-1,2-oxazol-3-yl]pyrrolidin-3-yl}methanesulfonamide], the “OX2R agonist activity (3 μM, %)” value is reported as 89%.
For `CCS(=O)(=O)N[C@H]1CCN(C2=NOC(c3ccc(C)cc3-c3c(F)cccc3F)C2)C1` (stereo partly drawn) [Example 8, N-{(3S)-1-[5-(2′,6′-difluoro-5-methyl[1,1′-biphenyl]-2-yl)-4,5-dihydro-1,2-oxazol-3-yl]pyrrolidin-3-yl}ethanesulfonamide], the “OX2R agonist activity (3 μM, %)” value is given as 104%.
Turning to `Cc1cc(F)c(C2CC(N3C[C@@H](NS(C)(=O)=O)C(F)(F)C3)=NO2)c(-c2c(F)cc(F)cc2F)c1` (stereo partly drawn) [Example 145, N-{(3R)-4,4-difluoro-1-[5-(2′,3,4′,6′-tetrafluoro-5-methyl[1,1′-biphenyl]-2-yl)-4,5-dihydro-1,2-oxazol-3-yl]pyrrolidin-3-yl}methanesulfonamide], the “OX2R agonist activity (3 μM, %)” value was determined as 105%.
Take `Cc1cnc([C@@H]2CC(N3C[C@H](F)[C@H](NS(=O)(=O)C4(F)CC4)C3)=NO2)c(-c2c(F)cccc2F)c1` (single isomer, unassigned) [Example 117, optical isomer of N-[(3R,4S)-1-{(5S)-5-[3-(2,6-difluorophenyl)-5-methylpyridin-2-yl]-4,5-dihydro-1,2-oxazol-3-yl}-4-fluoropyrrolidin-3-yl]-1-fluorocyclopropane-1-sulfonamide or N-[(3S,4R)-1-{(5S)-5-[3-(2,6-difluorophenyl)-5-methylpyridin-2-yl]-4,5-dihydro-1,2-oxazol-3-yl}-4-fluoropyrrolidin-3-yl]-1-fluorocyclopropane-1-sulfonamide]: the “OX2R agonist activity (3 μM, %)” value was found to be 105%.
In the case of `Cc1ccc(C2CC(N3C[C@H](F)[C@H](NS(=O)(=O)N(C)C)C3)=NO2)c(-c2ncc(F)cc2F)c1` (stereo partly drawn) [Example 125, N′-[(3R,4S)-1-{5-[2-(3,5-difluoropyridin-2-yl)-4-methylphenyl]-4,5-dihydro-1,2-oxazol-3-yl}-4-fluoropyrrolidin-3-yl]-N,N-dimethylsulfuric diamide], the “OX2R agonist activity (3 μM, %)” value came out at 104%.
Regarding `CS(=O)(=O)N[C@@H]1CN(C2=NOC(c3ncc(Br)cc3-c3c(F)cc(F)cc3F)C2)CC1(F)F` (stereo partly drawn) [Example 40, N-[(3R)-1-{5-[5-bromo-3-(2,4,6-trifluorophenyl)pyridin-2-yl]-4,5-dihydro-1,2-oxazol-3-yl}-4,4-difluoropyrrolidin-3-yl]methanesulfonamide], the “OX2R agonist activity (3 μM, %)” value is recorded as 103%.
On to `CS(=O)(=O)N[C@@H]1CN(C2=NOC(c3ncc(Br)cc3-c3c(F)cccc3F)C2)CC1(F)F` (stereo partly drawn) [Example 52, N-[(3R)-1-{5-[5-bromo-3-(2,6-difluorophenyl)pyridin-2-yl]-4,5-dihydro-1,2-oxazol-3-yl}-4,4-difluoropyrrolidin-3-yl]methanesulfonamide], for which the “OX2R agonist activity (3 μM, %)” value was 93%.
With `CCS(=O)(=O)N[C@H]1CCN(C2=NOC(CF)(c3ncc(F)cc3-c3c(F)cccc3F)C2)C1` (stereo partly drawn) [Example 88, N-[(3S)-1-{5-[3-(2,6-difluorophenyl)-5-fluoropyridin-2-yl]-5-(fluoromethyl)-4,5-dihydro-1,2-oxazol-3-yl}pyrrolidin-3-yl]ethanesulfonamide], the “OX2R agonist activity (3 μM, %)” value was determined as 112%.
Turning to `Cc1cc(F)c(C2CC(N3C[C@H](F)[C@H](NS(C)(=O)=O)C3)=NO2)c(-c2ncc(F)cc2F)c1` (stereo partly drawn) [Example 178, N-[(3R,4S)-1-{5-[2-(3,5-difluoropyridin-2-yl)-6-fluoro-4-methylphenyl]-4,5-dihydro-1,2-oxazol-3-yl}-4-fluoropyrrolidin-3-yl]methanesulfonamide], the “OX2R agonist activity (3 μM, %)” value is listed as 111%.
With `C[C@]1(F)CN(C2=NOC(c3c(F)cccc3-c3c(F)cccc3F)C2)C[C@H]1NS(C)(=O)=O` (single isomer, unassigned) [Example 155, N-{(3R,4S)-4-fluoro-4-methyl-1-[5-(2′,3,6′-trifluoro[1,1′-biphenyl]-2-yl)-4,5-dihydro-1,2-oxazol-3-yl]pyrrolidin-3-yl}methanesulfonamide or N-{(3S,4R)-4-fluoro-4-methyl-1-[5-(2′,3,6′-trifluoro[1,1′-biphenyl]-2-yl)-4,5-dihydro-1,2-oxazol-3-yl]pyrrolidin-3-yl)methanesulfonamide], the “OX2R agonist activity (3 μM, %)” value came out at 99%.
With `CS(=O)(=O)N[C@@H]1CN(C2=NOC(c3c(F)cccc3-c3c(F)cccc3F)C2)C[C@@H]1F` (stereo partly drawn) [Example 141, N-{(3R,4S)-4-fluoro-1-[5-(2′,3,6′-trifluoro[1,1′-biphenyl]-2-yl)-4,5-dihydro-1,2-oxazol-3-yl]pyrrolidin-3-yl}methanesulfonamide], the “OX2R agonist activity (3 μM, %)” value worked out at 97%.
In the case of `CS(=O)(=O)N[C@@H]1CN(C2=NOC(c3c(F)cc(Cl)cc3-c3ncc(F)cc3F)C2)CC1(F)F` (stereo partly drawn) [Example 171, N-[(3R)-1-{5-[4-chloro-2-(3,5-difluoropyridin-2-yl)-6-fluorophenyl]-4,5-dihydro-1,2-oxazol-3-yl}-4,4-difluoropyrrolidin-3-yl]methanesulfonamide], the “OX2R agonist activity (3 μM, %)” value was found to be 109%.
With `CS(=O)(=O)N[C@@H]1CN(C2=NOC(c3ncc(Cl)cc3-c3c(F)cc(F)cc3F)C2)C[C@@H]1F` (stereo partly drawn) [Example 84, N-[(3R,4S)-1-{5-[5-chloro-3-(2,4,6-trifluorophenyl)pyridin-2-yl]-4,5-dihydro-1,2-oxazol-3-yl}-4-fluoropyrrolidin-3-yl]methanesulfonamide], the “OX2R agonist activity (3 μM, %)” value turned out to be 97%.
For the compound `Cc1cnc([C@@H]2CC(N3C[C@@H](NS(=O)(=O)C4CC4)C(F)(F)C3)=NO2)c(-c2c(F)cccc2F)c1` [Example 33, N-[(3R)-1-{(5S)-5-[3-(2,6-difluorophenyl)-5-methylpyridin-2-yl]-4,5-dihydro-1,2-oxazol-3-yl}-4,4-difluoropyrrolidin-3-yl]cyclopropanesulfonamide], the “OX2R agonist activity (3 μM, %)” value is listed as 102%.
Turning to `O=S(=O)(CF)N[C@H]1CCN(C2=NOC(c3ncc(Br)cc3-c3c(F)cccc3F)C2)C1` (stereo partly drawn) [Example 102, N-[(3S)-1-{5-[5-bromo-3-(2,6-difluorophenyl)pyridin-2-yl]-4,5-dihydro-1,2-oxazol-3-yl}pyrrolidin-3-yl]-1-fluoromethanesulfonamide], the “OX2R agonist activity (3 μM, %)” value is 95%.
As to `CCS(=O)(=O)N[C@@H]1CN(C2=NO[C@H](c3ncc(C)cc3-c3c(F)cccc3F)C2)CC1(F)F` [Example 22, N-[(3R)-1-{(5S)-5-[3-(2,6-difluorophenyl)-5-methylpyridin-2-yl]-4,5-dihydro-1,2-oxazol-3-yl}-4,4-difluoropyrrolidin-3-yl]ethanesulfonamide], the “OX2R agonist activity (3 μM, %)” value worked out at 102%.
As for `Cc1cnc([C@@H]2CC(N3C[C@@H](C)[C@H](NS(C)(=O)=O)C3)=NO2)c(-c2c(F)cc(F)cc2F)c1` [Example 63, N-[(3S,4R)-4-methyl-1-{(5S)-5-[5-methyl-3-(2,4,6-trifluorophenyl)pyridin-2-yl]-4,5-dihydro-1,2-oxazol-3-yl}pyrrolidin-3-yl]methanesulfonamide], the “OX2R agonist activity (3 μM, %)” value is 101%.
The value for `CS(=O)(=O)N[C@@H]1CN(C2=NOC(CF)(c3ncccc3-c3c(F)cc(F)cc3F)C2)CC1(F)F` (stereo partly drawn) [Example 157, N-[(3R)-4,4-difluoro-1-{5-(fluoromethyl)-5-[3-(2,4,6-trifluorophenyl)pyridin-2-yl]-4,5-dihydro-1,2-oxazol-3-yl}pyrrolidin-3-yl]methanesulfonamide] was 92%; that for `O=S(=O)(CF)N[C@@H]1CN(C2=NOC(c3c(F)cccc3-c3c(F)cccc3F)C2)CC1(F)F` (stereo partly drawn) [Example 170, N-{(3R)-4,4-difluoro-1-[5-(2′,3,6′-trifluoro[1,1′-biphenyl]-2-yl)-4,5-dihydro-1,2-oxazol-3-yl]pyrrolidin-3-yl}-1-fluoromethanesulfonamide] was 102%.
The value for `Cc1cnc([C@@H]2CC(N3C[C@@H](F)[C@H](NS(=O)(=O)CF)C3)=NO2)c(-c2c(F)cccc2F)c1` [Example 65, N-[(3R,4R)-1-{(5S)-5-[3-(2,6-difluorophenyl)-5-methylpyridin-2-yl]-4,5-dihydro-1,2-oxazol-3-yl}-4-fluoropyrrolidin-3-yl]-1-fluoromethanesulfonamide] was 97%.

The record behind these values is patent US20240217957A1, “HETEROCYCLIC COMPOUND AND USE THEREOF” (TAKEDA PHARMACEUTICAL COMPANY LIMITED, priority 2022, published 2024).
